pKi: −log10 of the molar value.

The target in data set [1] is D(2) dopamine receptor (Homo sapiens, UniProt P14416). Description: Binding affinity to cloned human dopamine D2 receptor.
The target in data set [2] is D(3) dopamine receptor (Homo sapiens, UniProt P35462). The data set is described as follows: Binding affinity to cloned human dopamine D3 receptor.
A short description of data set [3]: Oral bioavailability in rat at 2 mg/kg, iv and 10 mg/kg, po. The format is ADME, organism-based. Particulars: in vivo.
In data set [4] the test system is Liver microsomes. Description: Metabolic stability in rat liver microsomes. The format is ADME, Microsome. For orientation: Microsomes from liver hold many membrane-bound enzymes, among them those of drug oxidation.
Data set [5] has as its system Liver microsomes. The data set is described as follows: Metabolic stability in human liver microsomes. Format: ADME, Microsome.
Data set [6] in a line: Permeability across Caco-2 cell membrane at pH 7.2. Format: ADME, cell-based. To be noted: human, Caco-2, pH 7.2; read-out: permeability. In general terms: Passage across Caco-2 layers is used to estimate intestinal permeability.
A short description of data set [7]: Brain to plasma ratio in rat at 2 mg/kg, iv and 10 mg/kg, po.
Data set [8] is filed under the species Canis familiaris. Description: Metabolic stability in dog liver microsomes. The format is ADME, Canis lupus familiaris.

Chain of D(2) dopamine receptor (P14416 whole entry): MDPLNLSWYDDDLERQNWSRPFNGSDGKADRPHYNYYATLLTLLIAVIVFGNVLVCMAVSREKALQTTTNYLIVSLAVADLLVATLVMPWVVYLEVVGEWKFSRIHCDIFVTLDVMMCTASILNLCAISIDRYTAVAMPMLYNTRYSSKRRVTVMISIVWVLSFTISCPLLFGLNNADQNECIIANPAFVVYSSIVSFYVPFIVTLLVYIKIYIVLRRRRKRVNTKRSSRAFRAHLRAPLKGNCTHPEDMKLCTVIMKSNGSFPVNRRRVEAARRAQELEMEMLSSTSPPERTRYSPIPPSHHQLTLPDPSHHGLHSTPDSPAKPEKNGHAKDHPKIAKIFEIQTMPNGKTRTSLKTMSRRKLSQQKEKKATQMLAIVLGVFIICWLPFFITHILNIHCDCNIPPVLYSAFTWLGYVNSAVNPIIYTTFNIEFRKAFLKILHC
Chain of D(3) dopamine receptor (P35462 whole entry): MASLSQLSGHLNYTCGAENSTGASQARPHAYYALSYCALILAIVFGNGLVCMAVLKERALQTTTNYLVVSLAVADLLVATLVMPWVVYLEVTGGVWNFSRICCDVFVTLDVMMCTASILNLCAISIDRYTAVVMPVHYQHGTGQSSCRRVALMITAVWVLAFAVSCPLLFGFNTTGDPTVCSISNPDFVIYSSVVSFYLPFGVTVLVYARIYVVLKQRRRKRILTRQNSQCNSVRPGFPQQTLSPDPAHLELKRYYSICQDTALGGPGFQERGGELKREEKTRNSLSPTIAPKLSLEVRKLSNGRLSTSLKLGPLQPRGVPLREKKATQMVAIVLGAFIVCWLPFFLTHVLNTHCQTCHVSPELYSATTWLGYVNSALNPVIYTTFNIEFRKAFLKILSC

Regarding `CC(C)(C)c1nc(N2CCN(CCCCn3ccc(O)cc3=O)CC2)cc(C(F)(F)F)n1`, the pKi in data set [1] was 7.59; in data set [2], 8.96.
Taken in the same sequence, the figures for `CC(C)(C)c1nc(N2CCN(CCCCNC(=O)NCC3CCCCC3)CC2)cc(C(F)(F)F)n1` were 6.80 and 8.17.
Taken in the same sequence, the figures for `CCN(CC)C(=O)NCCCCN1CCN(c2cc(C(F)(F)F)nc(C(C)(C)C)n2)CC1` were 7.76 and 9.05.
As for `Cc1cccn(CCCCN2CCN(c3cc(C(F)(F)F)nc(C(C)(C)C)n3)CC2)c1=O`, in data set [1], the negative-log Ki (pKi) was 6.77.
In the case of `Cc1cccc(=O)n1CCCCN1CCN(c2cc(C(F)(F)F)nc(C(C)(C)C)n2)CC1`, the pKi in data set [1] was 6.71; in data set [2], 7.92.
Taken in the same sequence, the figures for `CC(C)(C)c1nc(N2CCN(CCCCn3cc(Cl)ccc3=O)CC2)cc(C(F)(F)F)n1` were 6.89 and 7.49.
Regarding `CC(C)(C)NC(=O)NCCCCN1CCN(c2cc(C(F)(F)F)nc(C(C)(C)C)n2)CC1`, the pKi was 7.18 in data set [1] and 8.40 in data set [2].
Taken in the same sequence, the figures for `CC(C)(C)c1nc(N2CCN(CCCCNC(=O)Nc3ccccc3)CC2)cc(C(F)(F)F)n1` were 7.23 and 8.49.
Taken in the same sequence, the figures for `CC(C)(C)c1nc(N2CCN(CCCCn3cc(C(F)(F)F)ccc3=O)CC2)cc(C(F)(F)F)n1` were 6.40 and 7.45.
As to `CC(C)(C)c1nc(N2CCN(CCCCn3ccc(C(F)(F)F)cc3=O)CC2)cc(C(F)(F)F)n1`, the pKi in data set [1] is 6.64; in data set [2], 7.94.
As for `CC(C)(C)c1nc(N2CCN(CCCCn3ccc(C(F)(F)F)nc3=O)CC2)cc(C(F)(F)F)n1`, in data set [1], the pKi is 6.03.
As for `CC(C)(C)c1nc(N2CCN(CCCCn3cccc(C(F)(F)F)c3=O)CC2)cc(C(F)(F)F)n1`, the pKi was 6.39 in data set [1] and 8.03 in data set [2].
For the molecule `CC(C)(C)c1nc(N2CCN(CCCCNC(=O)CCc3ccccc3)CC2)cc(C(F)(F)F)n1`, the pKi in data set [1] was 6.61; in data set [2], 8.80. Besides, the bioavailability in data set [3] was less than 10%.
In the case of `CC(C)(C)c1nc(N2CCN(CCCCn3ccc(-c4ccccc4)cc3=O)CC2)cc(C(F)(F)F)n1`, in data set [1], the pKi is 6.28.
Consider `CCN(Cc1ccccc1)C(=O)NCCCCN1CCN(c2cc(C(F)(F)F)nc(C(C)(C)C)n2)CC1`, for which the pKi was 6.67 in data set [1] and 8.08 in data set [2].
Taken in the same sequence, the figures for `CC(C)(C)c1nc(N2CCN(CCCCNC(=O)NCCc3ccccc3)CC2)cc(C(F)(F)F)n1` were 6.63 and 8.14.
`COc1cccn(CCCCN2CCN(c3cc(C(F)(F)F)nc(C(C)(C)C)n3)CC2)c1=O`: in data set [1], the pKi was 6.77.
For the molecule `CC(C)(C)CNC(=O)NCCCCN1CCN(c2cc(C(F)(F)F)nc(C(C)(C)C)n2)CC1`, the negative logarithm of the Ki (pKi) in data set [1] was 7.04; in data set [2], 8.26.
Turning to `Cc1ccn(CCCCN2CCN(c3cc(C(F)(F)F)nc(C(C)(C)C)n3)CC2)c(=O)c1`, the values for the Stability in data set [4], in data set [5] and in data set [8] were 74%, greater than 97% and 59%, respectively. Further, the Papp in data set [6] was 5 ×10⁻⁶ cm/s. Moreover, the pKi in data set [1] was 7.20. Further, the bioavailability in data set [3] turned out to be 37%. Besides, the Kp in data set [7] came to 3.7.
With `CC(C)(C)c1nc(N2CCN(CCCCNC(=O)NCc3ccccc3)CC2)cc(C(F)(F)F)n1`, the pKi in data set [1] is 6.86; in data set [2], 8.57.
Take `CC(C)(C)c1nc(N2CCN(CCCCCC(=O)NCc3ccccc3)CC2)cc(C(F)(F)F)n1`: the figures for the pKi in data set [1] and in data set [2] were 6.76 and 8.21, respectively.

Usually pKi stands for −log10 of the Ki, conventionally taken in molar units. High values mean a small Ki, low ones a large Ki. What is called bioavailability is the share of a dose that reaches the circulation, judged against a reference dose that is usually intravenous. Lower therefore signals little systemic uptake. Broadly, the Kp is tissue or fluid exposure divided by exposure in the circulation.

These data come from ChEMBL document CHEMBL1146925 (Bioorg Med Chem Lett, 2006).
